From patent publication US20070225312A1, “TERGURIDE / PROTERGURIDE FOR THE TREATMENT OF CHRONIC PAIN” (ERGONEX PHARMA GMBH, priority 2006, published 2007)

Key:
[1] = system: patient with herniated disc, chronic pain; experiment: Herniated disc chronic pain case, co-therapy with oxycodone
[2] = system: patient with migrainous headaches; experiment: Migraine prophylaxis case; assay type: in vivo, human
Experimental: The patient suffered from migrainous headaches with an average of 4-5 attacks per month, lasting on average between 3 and 8 hours. For acute pain treatment during an attack, a dosage of 50 mg of sumatriptan was administered orally. For the purpose of migraine prophylaxis, the patient was treated with topiramate in a dosage of 200 mg per day. […] Under administration of terguride (2×0.25 mg per day), the number of pain attacks decreased considerably to only one pain attack within 6 weeks with low pain intensity; also, the well-being of the patient improved within 2 weeks after the start of the therapy.

[3] = system: patient suffering from fibromyalgia; experiment: Application of terguride in the case of fibromyalgia (single patient); assay type: in vivo, human
Experimental: A patient suffering from fibromyalgia was treated with terguride. The patient complained about chronic pain in the extremities as well as about stomach pains and continuous exhaustion and tiredness. The discomforts had persisted for several months. No pretreatment had been realized prior to the treatment with terguride. The patient was treated with a daily dose of 3 mg of terguride which was administered in the morning and in the evening in single doses of 1.5 mg. The treatment was realized gradually. […] The treatment was realized over a period of 25 weeks and the condition of the patient was examined weekly.

[4] = system: patient suffering from mastalgia and stomach pains due to premenstrual syndrome; experiment: Application of terguride in the case of mastalgia/premenstrual syndrome (single patient); assay type: in vivo, human
Experimental: A patient suffering from mastalgia and stomach pains due to premenstrual syndrome was treated with terguride. […] The therapy started in the middle of the cycle. Twice a day, a tablet containing 0.5 mg terguride was administered to the patient over a period of 3 months. The pain severity was observed by means of a visual analogue scale. During the therapy, the pains in the chest and stomach area decreased and the patient was able to renounce on the administration of additional pain medication.

[5] = system: patient with postherpetic neuralgia; experiment: Postherpetic neuralgia case; assay type: in vivo, human; conditions: for pains under prior treatment: amitriptyline 3x50 mg/d, subsequently gabapentin 1500 mg daily, considerable deterioration within 10 days
Source text: A patient of normal weight complained about a severe burning sensation and pains in the dermal area of the chest.

[6] = system: patient suffering from migraine; experiment: Application of terguride for the prophylaxis of migraine (single patient, diary); assay type: in vivo, human; conditions: daily dose 2 mg
Experimental: A patient, suffering from migraine on average four times a month, was treated with terguride. The patient was treated with a daily dose of 2 mg terguride which was administered in the morning and in the evening in single doses of 1 mg. The treatment was realized gradually. […] The patient was treated over a period of 24 weeks. The frequency, duration and severity of the migraine attacks were recorded by means of a diary. Within 4 weeks following the start of the treatment, a reduction of 40% of the frequency of migraine attacks could be shown, as well as a reduction of the attack duration from cumulative 12 days before the therapy to 8 days under terguride. The consumption of pain medication under therapy with terguride was reduced by 46%. […] The patient reported an improvement of […] general condition.

[7] = system: patient with diabetic neuropathy; experiment: Diabetic neuropathy case (numerical rating scale); assay type: in vivo, human
Experimental: About 15 months ago, a diabetic neuropathy was clinically diagnosed in a patient who has been suffering from Type 2 Diabetes for 10 years. The patient was treated with 3×50 mg amitryptiline/day. At the time of the examination, the patient complained about pain conditions associated with burning sensations, shooting or stabbing pains and unpleasant formication, mainly in the feet and with increasing intensity during the night. On the numerical rating scale from 0=no pain to 10=maximum pain intensity, the patient reported mean pain values of 8-9 on average.
Under therapy with terguride (0.5 mg b.i.d.) the pain conditions and the general condition of the patient improved quickly (average pain value of 2-3 on the rating scale).

[8] = system: tumor patient with bone pains from bone metastases; experiment: Tumor associated pain case; assay type: in vivo, human; conditions: 0.5 mg bid
Experimental: A tumor patient suffering from a pancreatic carcinoma complained about bone pains resulting from the development of bone metastases. The patient was treated with ibandronate. Additionally, the treatment was realized with ibuprofen, acetaminophen and desipramine. […] After the start of the therapy with terguride (0.5 mg bid) the patient's pain conditions were reduced and the well-being improved continuously.

[9] = system: patient suffering from fibromyalgia; experiment: Application of proterguride in the case of fibromyalgia (single patient); assay type: in vivo, human; conditions: daily dose 0.5 mg
Experimental: A patient suffering from fibromyalgia was treated with proterguride.
The patient complained about stomach problems, stomach pains, pains in the chest as well as about swollen breasts and continuous exhaustion and tiredness. The discomforts had persisted for approx. one year. No pretreatment had been realized prior to the treatment with proterguride.
The patient was treated with a daily dose of 0.5 mg of proterguride which was administered in the morning and in the evening. The treatment was realized gradually.
The treatment was realized over a period of 33 weeks and the condition of the patient was examined weekly. After just 12 weeks, the condition had improved, particularly regarding the pains in the chest.

## COc1ccc2c3c1O[C@H]1C(=O)CC[C@@]4(O)[C@@H](C2)N(C)CC[C@]314 [oxycodone, reference compound]
[1]; oxycodone alone, 2x10 mg increased to 2x40 mg per day
  pain intensity: considerably reduced
[1]; oxycodone alone, longer treatment, required dose reduction to 2x20 mg/day
  constipation complaints: the more complaints occurred due to constipation

## CCN(CC)C(=O)N[C@H]1C[C@@H]2c3cccc4[nH]cc(c34)C[C@H]2N(C)C1 [terguride]
[2]; terguride 2x0.25 mg per day
  side effects: No side effects were observed
  time to improvement of well-being after start of therapy: ≤ 2 weeks
[2]; terguride 2x0.25 mg per day, before: 4-5 attacks per month, low pain intensity
  number of pain attacks within 6 weeks: one
[2]; terguride discontinued
  migraine presentation after discontinuation (treatment-free interval): the migraine presentation returned
[3]; daily dose 3 mg (2 x 1.5 mg), after 10 weeks
  condition, in particular pains in the extremities and stomach pains (visual analog scale): visibly improved
[3]; daily dose 3 mg, after 17 weeks
  chronic conditions of tiredness and exhaustion: nearly impossible to detect
[4]; 0.5 mg twice a day, 3 months
  general condition and joy of life: considerably improved
  pains in the chest and stomach area (visual analogue scale): decreased
  side effects: No side effects were observed
[4]; continued therapy
  symptoms during the following months under therapy: remained symptom-free
[5]; 0.5 mg t.i.d.
  side effects: No side effects were observed
[5]; after 3 months, daily dose gradually reduced
  pain on gradual dose reduction (treatment-free interval): the pain increased quickly
[5]; terguride 0.5 mg t.i.d.
  pain presentation: improved in a fast and continuous manner
[6]; 24 weeks
  side effects: No side effects
[6]; under terguride, versus 12 days before the therapy
  attack duration (cumulative): 8 days
[6]; under therapy
  reduction of consumption of pain medication: 46%
[6]; within 4 weeks following start of treatment
  reduction of the frequency of migraine attacks: 40%
[1]; chronic therapy
  efficacy under chronic therapy: remained efficient
[1]; co-therapy terguride 2x0.5 mg/day with oxycodone 2x20 mg/day
  pain: almost completely pain-free
[7]; 0.5 mg b.i.d.
  side effects: No side effects
[7]; 0.5 mg b.i.d., continuous treatment
  loss of efficacy under continuous treatment: No signs of an loss of efficacy
[7]; under terguride 0.5 mg b.i.d.
  average pain value on numerical rating scale (0=no pain to 10=maximum pain intensity): 2-3
[8]
  pain conditions: reduced
  side effects: No side effects were observed

## CN(C)CCC=C1c2ccccc2CCc2ccccc21 [amitriptyline, reference compound]
[5]
  pains under prior treatment: only to a short-term improvement
[7]; at examination, patient treated with 3x50 mg/day, before terguride
  mean pain values on numerical rating scale (0=no pain to 10=maximum pain intensity): 8-9

## NCC1(CC(=O)O)CCCCC1 [gabapentin, reference compound]
[5]
  pains under prior treatment: only to a short-term improvement

## CCCN1C[C@@H](NC(=O)N(CC)CC)C[C@@H]2c3cccc4[nH]cc(c34)C[C@H]21 [proterguride]
[9]; after 12 weeks
  condition, particularly pains in the chest: improved
  swelling of breasts: reduction of the swelling
[9]; after 20 weeks
  chronic tiredness and exhaustion and stomach pains: largely disappeared
[9]; after 30 weeks
  overall condition of the patient: in the same condition as before the onset of the disease

## CC1(C)O[C@@H]2[C@@H](CO[C@@]3(COS(N)(=O)=O)OC(C)(C)O[C@@H]23)O1 [topiramate, reference compound]
[2]; topiramate 200 mg per day
  migraine activity: No reduction of the migraine activity
[2]; topiramate 200 mg per day, after 3 months
  adverse effects leading to discontinuation: nausea and weight loss
